Biological target: T1, IL-17A (Homo sapiens, UniProt Q16552)
T1 sequence (Q16552 24-155): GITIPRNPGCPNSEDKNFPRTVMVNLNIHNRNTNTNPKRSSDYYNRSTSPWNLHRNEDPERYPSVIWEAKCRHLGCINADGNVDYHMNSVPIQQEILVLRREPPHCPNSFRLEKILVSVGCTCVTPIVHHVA
Assay: Inhibition of IL-17A induced IL-6 release from dermal fibroblast cell line (HDF cell line assay)
Assay type: cell-based
Conditions: human dermal fibroblasts (HDF) stimulated with IL-17A 50 pM + TNF-α 25 pM; IL-6 measured by HTRF; pIC50 = −log10[IC50], IC50 molar
Description: Inhibition of IL-17A Induced IL-6 Release from Dermal Fibroblast Cell Line
The purpose of this assay is to test the neutralising ability to IL-17 proteins, in a human primary cell system. Stimulation of normal human dermal fibroblasts (HDF) with IL-17 alone produces only a very weak signal but in combination with certain other cytokines, such as TNFα, a synergistic effect can be seen in the production of inflammatory cytokines, i.e. IL-6.
HDFs were stimulated with IL-17A (50 pM) in combination with TNF-α (25 pM). The resultant IL-6 response was then measured using a homogenous time-resolved FRET kit from Cisbio. The kit utilises two monoclonal antibodies, one labelled with Eu-Cryptate (Donor) and the second with d2 or XL665 (Acceptor). The intensity of the signal is proportional to the concentration of IL-6 present in the sample (Ratio is calculated by 665/620×104).
The ability of a compound to inhibit IL-17 induced IL-6 release from human dermal fibroblasts is measured in this assay.
HDF cells (Sigma #106-05n) were cultured in complete media (DMEM+10% FCS+2 mM L-glutamine) and maintained in a tissue culture flask using standard techniques. Cells were harvested from the tissue culture flask on the morning of the assay using TrypLE (Invitrogen #12605036). The TrypLE was neutralised using complete medium (45 mL) and the cells were centrifuged at 300×g for 3 minutes. The cells were re-suspended in complete media (5 mL) counted and adjusted to a concentration of 3.125×10^4 cells/mL before being added to the 384 well assay plate (Corning #3701) at 40 μL per well. The cells were left for a minimum of three hours, at 37° C./5% CO2, to adhere to the plate.
Compounds were serially diluted in DMSO before receiving an aqueous dilution into a 384 well dilution plate (Greiner #781281), where 5 μL from the titration plate was transferred to 45 μL of complete media and mixed to give a solution containing 10% DMSO.
Mixtures of TNFα and IL-17 cytokine were prepared in complete media to final concentrations of TNFα 25 pM/IL-17A 50 pM, then 30 μL of the solution was added to a 384 well reagent plate (Greiner #781281).
10 μL from the aqueous dilution plate was transferred to the reagent plate containing 30 μL of the diluted cytokines, to give a 2.5% DMSO solution. The compounds were incubated with the cytokine mixtures for 5 h at 37° C. After the incubation, 10 μL was transferred to the assay plate, to give a 0.5% DMSO solution, then incubated for 18-20 h at 37° C./5% CO2.
From the Cisbio IL-6 FRET kit (Cisbio #62IL6PEB) europium cryptate and Alexa 665 were diluted in reconstitution buffer and mixed 1:1, as per kit insert. To a white low volume 384 well plate (Greiner #784075) were added FRET reagents (10 μL), then supernatant (10 μL) was transferred from the assay plate to Greiner reagent plate. The mixture was incubated at room temperature for 3 h with gentle shaking (<400 rpm) before being read on a Synergy Neo 2 plate reader (Excitation: 330 nm; Emission: […]).

Row | Structure (SMILES) | IC50 [µM]
1 | Cc1nonc1C(=O)N[C@H](c1nc2nc([C@H]3C[C@](O)(C(F)(F)F)CCN3C(=O)C34CC(F)(C3)C4)ccc2[nH]1)C(C1CC1)C1CC1 (single isomer, unassigned) [Example 7] | 2.51
2 | O=C(N1CCC(F)(F)CC1c1ccc2[nH]c(C(NC(=O)C3(C(F)(F)F)CC3)C(C3CC3)C3CC3)nc2n1)C12CC(F)(C1)C2 (centres unmarked) [Example 1, N-(2,2-Dicyclopropyl-1-{5-[4,4-difluoro-1-(3-fluorobicyclo[1.1.1]pentane-1-carbonyl)-piperidin-2-yl]-1H-imidazo[4,5-b]pyridin-2-yl}ethyl)-1-(trifluoromethyl)cyclopropane-carboxamide] | 0.0631
3 | Cc1nonc1C(=O)N[C@@H](c1nc2nc([C@H]3C[C@](O)(C(F)(F)F)CCN3C(=O)C34CC(F)(C3)C4)ccc2[nH]1)C(C1CC1)C1CC1 (single isomer, unassigned) [Example 9] | > 10
4 | Cc1nonc1C(=O)N[C@@H](c1nc2nc([C@@H]3CC(F)(F)CCN3C(=O)C34CC(F)(C3)C4)ccc2[nH]1)C(C1CC1)C1CC1 (single isomer, unassigned) [Example 4] | 3.16
5 | Cc1nonc1C(=O)N[C@H](c1nc2nc([C@@H]3C[C@@](O)(C(F)(F)F)CCN3C(=O)C34CC(F)(C3)C4)ccc2[nH]1)C(C1CC1)C1CC1 (single isomer, unassigned) [Example 8] | 0.00794
6 | O=C(N[C@H](c1nc2nc([C@H]3C[C@](O)(C(F)F)CCN3C(=O)C34CC(F)(C3)C4)ccc2[nH]1)C(C1CC1)C1CC1)C1(F)CC1 (single isomer, unassigned) [Example 12] | 0.794
7 | Cc1nonc1C(=O)N[C@H](c1nc2nc([C@@H]3CC(F)(F)CCN3C(=O)C34CC(F)(C3)C4)ccc2[nH]1)C(C1CC1)C1CC1 (single isomer, unassigned) [Example 6] | 0.0126
8 | Cc1nonc1C(=O)NC(c1nc2nc(C3CC(F)(F)CCN3C(=O)C34CC(F)(C3)C4)ccc2[nH]1)C(C1CC1)C1CC1 (centres unmarked) [Example 2, N-(2,2-Dicyclopropyl-1-{5-[4,4-difluoro-1-(3-fluorobicyclo[1.1.1]pentane-1-carbonyl)-piperidin-2-yl]-1H-imidazo[4,5-b]pyridin-2-yl}ethyl)-4-methyl-1,2,5-oxadiazole-3-carboxamide] | 0.0631
9 | Cc1nonc1C(=O)N[C@@H](c1nc2nc([C@H]3CC(F)(F)CCN3C(=O)C34CC(F)(C3)C4)ccc2[nH]1)C(C1CC1)C1CC1 (single isomer, unassigned) [Example 3] | 15.8
10 | Cc1nonc1C(=O)N[C@H](c1nc2nc([C@H]3CC(F)(F)CCN3C(=O)C34CC(F)(C3)C4)ccc2[nH]1)C(C1CC1)C1CC1 (single isomer, unassigned) [Example 5] | 0.398
11 | O=C(N[C@H](c1nc2nc([C@@H]3C[C@@](O)(C(F)F)CCN3C(=O)C34CC(F)(C3)C4)ccc2[nH]1)C(C1CC1)C1CC1)C1(F)CC1 (single isomer, unassigned) [Example 11] | 0.00501

From US12643896B2, “Dicyclopropylmethyl derivatives as IL-17 modulators” (UCB Biopharma SRL, priority 2020, dated 2026)
